What was measured:
[1] = system: tyrosinase (SIGMA) extracted from mushrooms; assay: Tyrosinase inhibitory effect; assay type: biochemical; conditions: positive control, 40 μg/ml of kojic acid; substrate tyrosine; 37° C.; absorbance at 475 nm
Experimental: The enzyme tyrosinase used in this Test Example was a tyrosinase (SIGMA) extracted from mushrooms. First, the substrate tyrosine was dissolved in distilled water at a concentration of 0.3 mg/ml, and 1.0 ml of the solution was placed in each test tube. Then, 1.0 ml of potassium-phosphate buffer (0.1 M, pH 6.8) and 0.7 ml of distilled water were added thereto, thereby preparing a mixed solution. […] Then, the test tube containing the reaction solution was quenched in ice water to stop the reaction, and the absorbance at 475 nm was measured with a photoelectric spectrophotometer. Then, the tyrosinase inhibitory activity of each of the extracts was calculated using the following equation 1, and the results of the calculation are shown in Table 1 below. Tyrosinase inhibition (%)=100−(absorbance of each extract/absorbance of control×100 [Equation 1]

B16/F10 melanoma cells = assay: Melanin production inhibitory activity using B16/F10 melanoma cells; assay type: cell-based; conditions: 50 μg/ml of arbutin; incubated for 3 days; absorbance at 405 nm
Experimental: Samples, containing 0.001 wt % of each of the extracts of Examples 1 to 9 and Comparative Examples 1 to 3, and 50 /μg/ml of arbutin, were used as test materials. Each of the test materials was added to a culture of B16/F10 melanoma cells (Korean Cell Line Bank) at a given concentration and incubated for 3 days. The medium as removed, and the cells were washed with PBS and lysed with 1N NaOH, and the absorbance at 405 nm was measured. As a control, cells to which no test material was added were used. The skin whitening effects of the test materials were measured by measuring the melanin production inhibitory activity of each test material in comparison with the content of melanin in the control. Melanin production inhibition (%) was calculated using the following equation 2, and the calculation results are shown in Table 2 below.
Melanin production inhibition (%)=100−(absorbance of each test material/absorbance of control)×100 [Equation 2]

Row | Tyrosinase inhibition (%) [1] [%] | Compound | Melanin production inhibition (%) (B16/F10 melanoma cells)
1 | 51 | O=c1cc(CO)occ1O [Kojic acid, kojic acid] | 
2 |  | OC[C@H]1O[C@@H](Oc2ccc(O)cc2)[C@H](O)[C@@H](O)[C@@H]1O [Arbutin, arbutin] | 48
